Measured values: ChEMBL document CHEMBL4414672, “Synthesis of certain benzothieno[3,2-d]pyrimidine derivatives as a selective SIRT2 inhibitors” (Eur J Med Chem, 2020)

Key:
Format in all cases: functional
[1] = test system: SN12C; experiment: Growth inhibition of human SN12C cells at 10^-5 M incubated for 48 hrs by sulforhodamine B assay; details: read-out: GI
[2] = test system: SNB-75; experiment: Growth inhibition of human SNB75 cells at 10^-5 M incubated for 48 hrs by sulforhodamine B assay; details: SNB-75, 48 h, read-out: GI
[3] = test system: OVCAR-3; experiment: Growth inhibition of human OVCAR3 cells at 10^-5 M incubated for 48 hrs by sulforhodamine B assay; details: OVCAR-3, 48 h, read-out: GI
[4] = test system: Hs-578T; experiment: Growth inhibition of human Hs 578T cells at 10^-5 M incubated for 48 hrs by sulforhodamine B assay; details: read-out: GI
[5] = test system: MDA-MB-468; experiment: Growth inhibition of human MDA-MB-468 cells at 10^-5 M incubated for 48 hrs by sulforhodamine B assay; details: MDA-MB-468, 48 h, read-out: GI
[6] = test system: SK-MEL-28; experiment: Growth inhibition of human SK-MEL-28 cells at 10^-5 M incubated for 48 hrs by sulforhodamine B assay; details: SK-MEL-28, 48 h, read-out: GI
[7] = test system: A498; experiment: Growth inhibition of human A498 cells at 10^-5 M incubated for 48 hrs by sulforhodamine B assay; details: A498, 48 h, read-out: GI
[8] = test system: NCI-H226; experiment: Growth inhibition of human NCI-H226 cells at 10^-5 M incubated for 48 hrs by sulforhodamine B assay; details: NCI-H226, 48 h, read-out: GI
[9] = test system: MOLT-4; experiment: Growth inhibition of human MOLT4 cells at 10^-5 M incubated for 48 hrs by sulforhodamine B assay; details: MOLT-4, 48 h, read-out: GI
[10] = test system: PC-3; experiment: Growth inhibition of human PC3 cells at 10^-5 M incubated for 48 hrs by sulforhodamine B assay; details: PC-3, 48 h, read-out: GI
[11] = test system: SR; experiment: Growth inhibition of human SR cells at 10^-5 M incubated for 48 hrs by sulforhodamine B assay; details: read-out: GI
[12] = test system: CCRF-CEM; experiment: Growth inhibition of human CCRF-CEM cells at 10^-5 M incubated for 48 hrs by sulforhodamine B assay; details: read-out: GI
[13] = test system: NCI-H322M; experiment: Growth inhibition of human NCI-H322M cells at 10^-5 M incubated for 48 hrs by sulforhodamine B assay; details: read-out: GI
[14] = test system: HT-29; experiment: Growth inhibition of human HT-29 cells at 10^-5 M incubated for 48 hrs by sulforhodamine B assay; details: HT-29, 48 h, read-out: GI
[15] = test system: CAKI-1; experiment: Growth inhibition of human Caki1 cells at 10^-5 M incubated for 48 hrs by sulforhodamine B assay; details: CAKI-1, 48 h, read-out: GI
[16] = test system: MDA-MB-435; experiment: Growth inhibition of human MDA-MB-435 cells at 10^-5 M incubated for 48 hrs by sulforhodamine B assay; details: MDA-MB-435, 48 h, read-out: GI
[17] = test system: MCF7; experiment: Growth inhibition of human MCF7 cells at 10^-5 M incubated for 48 hrs by sulforhodamine B assay; details: MCF7, 48 h, read-out: GI
[18] = test system: UACC-62; experiment: Growth inhibition of human UACC62 cells at 10^-5 M incubated for 48 hrs by sulforhodamine B assay; details: UACC-62, 48 h, read-out: GI
[19] = test system: NCI-H522; experiment: Growth inhibition of human NCI-H522 cells at 10^-5 M incubated for 48 hrs by sulforhodamine B assay; details: NCI-H522, 48 h, read-out: GI
[20] = test system: LOX IMVI; experiment: Growth inhibition of human LOXIMVI cells at 10^-5 M incubated for 48 hrs by sulforhodamine B assay; details: read-out: GI
[21] = test system: A549; experiment: Growth inhibition of human A549/ATCC cells at 10^-5 M incubated for 48 hrs by sulforhodamine B assay; details: A549, 48 h, read-out: GI
[22] = test system: SF-539; experiment: Growth inhibition of human SF539 cells at 10^-5 M incubated for 48 hrs by sulforhodamine B assay; details: SF-539, 48 h, read-out: GI
[23] = test system: IGROV-1; experiment: Growth inhibition of human IGROV1 cells at 10^-5 M incubated for 48 hrs by sulforhodamine B assay; details: IGROV-1, 48 h, read-out: GI
[24] = test system: SNB-19; experiment: Growth inhibition of human SNB19 cells at 10^-5 M incubated for 48 hrs by sulforhodamine B assay; details: SNB-19, 48 h, read-out: GI
[25] = test system: OVCAR-4; experiment: Growth inhibition of human OVCAR4 cells at 10^-5 M incubated for 48 hrs by sulforhodamine B assay; details: OVCAR-4, 48 h, read-out: GI
[26] = test system: TK-10; experiment: Growth inhibition of human TK10 cells at 10^-5 M incubated for 48 hrs by sulforhodamine B assay; details: TK-10, 48 h, read-out: GI
[27] = test system: UACC-257; experiment: Growth inhibition of human UACC257 cells at 10^-5 M incubated for 48 hrs by sulforhodamine B assay; details: UACC-257, 48 h, read-out: GI
[28] = test system: OVCAR-5; experiment: Growth inhibition of human OVCAR5 cells at 10^-5 M incubated for 48 hrs by sulforhodamine B assay; details: OVCAR-5, 48 h, read-out: GI
[29] = test system: Malme-3M; experiment: Growth inhibition of human MALME-3M cells at 10^-5 M incubated for 48 hrs by sulforhodamine B assay; details: read-out: GI
[30] = test system: COLO 205; experiment: Growth inhibition of human COLO205 cells at 10^-5 M incubated for 48 hrs by sulforhodamine B assay; details: COLO 205, 48 h, read-out: GI
[31] = test system: ACHN; experiment: Growth inhibition of human ACHN cells at 10^-5 M incubated for 48 hrs by sulforhodamine B assay; details: read-out: GI
[32] = test system: HCC 2998; experiment: Growth inhibition of human HCC2998 cells at 10^-5 M incubated for 48 hrs by sulforhodamine B assay; details: HCC 2998, 48 h, read-out: GI
[33] = test system: T47D; experiment: Growth inhibition of human T47D cells at 10^-5 M incubated for 48 hrs by sulforhodamine B assay; details: read-out: GI
[34] = test system: EKVX; experiment: Growth inhibition of human EKVX cells at 10^-5 M incubated for 48 hrs by sulforhodamine B assay; details: read-out: GI
[35] = test system: SW-620; experiment: Growth inhibition of human SW620 cells at 10^-5 M incubated for 48 hrs by sulforhodamine B assay; details: SW-620, 48 h, read-out: GI
[36] = test system: BT-549; experiment: Growth inhibition of human BT549 cells at 10^-5 M incubated for 48 hrs by sulforhodamine B assay; details: BT-549, 48 h, read-out: GI
[37] = test system: HCT-15; experiment: Growth inhibition of human HCT15 cells at 10^-5 M incubated for 48 hrs by sulforhodamine B assay; details: HCT-15, 48 h, read-out: GI
[38] = test system: SF-295; experiment: Growth inhibition of human SF295 cells at 10^-5 M incubated for 48 hrs by sulforhodamine B assay; details: SF-295, 48 h, read-out: GI
[39] = test system: DU-145; experiment: Growth inhibition of human DU145 cells at 10^-5 M incubated for 48 hrs by sulforhodamine B assay; details: DU-145, 48 h, read-out: GI

SMILES	inhibition of growth at 10 µM [1] [%]	inhibition of growth at 10 µM [2] [%]	inhibition of growth at 10 µM [3] [%]	inhibition of growth at 10 µM [4] [%]	inhibition of growth at 10 µM [5] [%]	inhibition of growth at 10 µM [6] [%]	inhibition of growth at 10 µM [7] [%]	inhibition of growth at 10 µM [8] [%]	inhibition of growth at 10 µM [9] [%]	inhibition of growth at 10 µM [10] [%]	inhibition of growth at 10 µM [11] [%]	inhibition of growth at 10 µM [12] [%]	inhibition of growth at 10 µM [13] [%]	inhibition of growth at 10 µM [14] [%]	inhibition of growth at 10 µM [15] [%]	inhibition of growth at 10 µM [16] [%]	inhibition of growth at 10 µM [17] [%]	inhibition of growth at 10 µM [18] [%]	inhibition of growth at 10 µM [19] [%]	inhibition of growth at 10 µM [20] [%]	further results
O=C1Nc2c(sc3ccc(Cl)cc23)C(c2cccc(Br)c2)N1 (stereo not drawn)	2.71	15.2	6.24	-5.56	-26.3	-12.8	-8.2	3.66	5.84	0.46	20.9	-14.4	5.33	-7.8	17.7	-5.37	-8.69	8.42	-0.2	-3.37	inhibition of growth at 10 µM [21]: 5.34%; inhibition of growth at 10 µM [22]: -0.96%; inhibition of growth at 10 µM [23]: 20.8%; inhibition of growth at 10 µM [24]: 0.22%; inhibition of growth at 10 µM [25]: -6.24%; inhibition of growth at 10 µM [26]: -23.4%; inhibition of growth at 10 µM [27]: -7.95%; inhibition of growth at 10 µM [28]: -1.01%; inhibition of growth at 10 µM [29]: 2.75%; inhibition of growth at 10 µM [30]: -4.67%; inhibition of growth at 10 µM [31]: 5.37%; inhibition of growth at 10 µM [32]: -23.5%; inhibition of growth at 10 µM [33]: 13%; inhibition of growth at 10 µM [34]: 7.46%; inhibition of growth at 10 µM [35]: -0.2%; inhibition of growth at 10 µM [36]: -17.5%; inhibition of growth at 10 µM [37]: -0.85%; inhibition of growth at 10 µM [38]: -0.96%; inhibition of growth at 10 µM [39]: -8.69%
N=C1Nc2c(sc3ccc(Cl)cc23)C(c2ccccc2O)N1 (stereo not drawn)	-22.4	22.4	-1.68	-10.5	2.58	-16.7	6.2	12.7	0.44	-12.5	10.2	-8.23	4.18	-6.21	-15.6	2	13.9	8.57	7.68	-0.7	inhibition of growth at 10 µM [21]: -4.84%; inhibition of growth at 10 µM [22]: -6.63%; inhibition of growth at 10 µM [23]: 17.4%; inhibition of growth at 10 µM [24]: -3.35%; inhibition of growth at 10 µM [25]: 12.3%; inhibition of growth at 10 µM [26]: 38%; inhibition of growth at 10 µM [27]: -10.3%; inhibition of growth at 10 µM [28]: -1.61%; inhibition of growth at 10 µM [29]: 4.61%; inhibition of growth at 10 µM [30]: -6.79%; inhibition of growth at 10 µM [31]: 18.8%; inhibition of growth at 10 µM [32]: -22.2%; inhibition of growth at 10 µM [33]: -13.9%; inhibition of growth at 10 µM [34]: 17.6%; inhibition of growth at 10 µM [35]: 1.38%; inhibition of growth at 10 µM [36]: 17.5%; inhibition of growth at 10 µM [37]: -5.8%; inhibition of growth at 10 µM [38]: -6.6%; inhibition of growth at 10 µM [39]: 23.3%
